{
  "source": "PubChem BioAssay (NCI)",
  "note": "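Compound exposure: 48 hours, 5 concentrations, 96-well plates. GI50 marks 50% less growth. Definition used: TGI = concentration required for complete inhibition of growth.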",
  "data": [
    {"system": "A549 NSCLC", "assay": "growth of human tumour cells (NCI), 48 h", "units": {"GI50": "µM", "TGI": "µM"}, "values": [
      {"smiles": "CC1OC2CC(=O)OC2C2=C1C(=O)c1c(O)cccc1C2=O", "note": "(stereo not given)", "GI50": 0.831, "TGI": 2.68},
      {"smiles": "O=C1NC(=Nc2ccccc2)S/C1=C\\c1ccc2ncccc2c1", "GI50": "> 7.12", "TGI": "> 25"},
      {"smiles": "C/C1=C\\CC[C@@]2(C)O[C@@H]2[C@H]2OC(=O)[C@@H](CN(C)C)[C@@H]2CC1", "GI50": 19.6, "TGI": 63.3},
      {"smiles": "Oc1ccc(Cl)cc1Cc1cc(Cl)cc(Cl)c1O", "GI50": 5.48, "TGI": 47.6},
      {"smiles": "C=C(C=O)C1CCC2(C(=O)O)CCC3(C)C(CCC4C5(C)CCC(O)C(C)(C)C5CCC43C)C12", "note": "(stereo not given)", "GI50": 4.58, "TGI": 28.7},
      {"smiles": "COc1ccc(N2C(=O)C(c3ccccc3)(c3ccccc3)C23C(=O)N(C)c2ccccc23)cc1", "note": "(stereo not given)", "GI50": "> 100", "TGI": "> 100"},
      {"smiles": "CC(C)=C[C@@H]1C[C@H](C)[C@H]2CC[C@H](C)C3=C2[C@](O)(OC3=O)[C@]1(C)O", "GI50": "> 100", "TGI": "> 100"},
      {"smiles": "CCC[CH2][Sn]([CH2]CCC)([CH2]CCC)[O]C(=O)CC", "GI50": 0.172, "TGI": 0.342},
      {"smiles": "C=C(C)[C@@]12OC3(/C=C/C=C/CCCCC)O[C@@H]1[C@@H]1[C@@H]4O[C@]4(CO)[C@@H](O)[C@]4(O)C(=O)C(C)=C[C@H]4[C@@]1(O3)[C@H](C)[C@H]2OC(=O)c1ccccc1", "GI50": "< 0.01", "TGI": 2.04},
      {"smiles": "O=c1c2ccccc2[se]n1-c1cccnc1", "TGI": "> 100"},
      {"smiles": "NC(=NCCCOc1ccc(Cl)cc1)Nc1ccc(C(F)(F)F)cc1", "GI50": 2.78, "TGI": 12.6}
    ]},
    {"system": "UO-31 renal", "assay": "growth of human tumour cells (NCI), 48 h", "units": {"GI50": "µM", "TGI": "µM"}, "values": [
      {"smiles": "CC1OC2CC(=O)OC2C2=C1C(=O)c1c(O)cccc1C2=O", "note": "(stereo not given)", "GI50": 0.0725, "TGI": 0.23},
      {"smiles": "O=C1NC(=Nc2ccccc2)S/C1=C\\c1ccc2ncccc2c1", "GI50": "> 25", "TGI": "> 25"},
      {"smiles": "C/C1=C\\CC[C@@]2(C)O[C@@H]2[C@H]2OC(=O)[C@@H](CN(C)C)[C@@H]2CC1", "GI50": 2.31, "TGI": 5.95},
      {"smiles": "Oc1ccc(Cl)cc1Cc1cc(Cl)cc(Cl)c1O", "GI50": 3.48, "TGI": 15.2},
      {"smiles": "C=C(C=O)C1CCC2(C(=O)O)CCC3(C)C(CCC4C5(C)CCC(O)C(C)(C)C5CCC43C)C12", "note": "(stereo not given)", "GI50": 0.627, "TGI": 2.16},
      {"smiles": "COc1ccc(N2C(=O)C(c3ccccc3)(c3ccccc3)C23C(=O)N(C)c2ccccc23)cc1", "note": "(stereo not given)", "GI50": "> 100", "TGI": "> 100"},
      {"smiles": "CC(C)=C[C@@H]1C[C@H](C)[C@H]2CC[C@H](C)C3=C2[C@](O)(OC3=O)[C@]1(C)O", "GI50": "> 100", "TGI": "> 100"},
      {"smiles": "CCC[CH2][Sn]([CH2]CCC)([CH2]CCC)[O]C(=O)CC", "GI50": 0.15, "TGI": 0.314},
      {"smiles": "C=C(C)[C@@]12OC3(/C=C/C=C/CCCCC)O[C@@H]1[C@@H]1[C@@H]4O[C@]4(CO)[C@@H](O)[C@]4(O)C(=O)C(C)=C[C@H]4[C@@]1(O3)[C@H](C)[C@H]2OC(=O)c1ccccc1", "GI50": 0.0221, "TGI": 1.85},
      {"smiles": "O=c1c2ccccc2[se]n1-c1cccnc1", "TGI": 93.7},
      {"smiles": "NC(=NCCCOc1ccc(Cl)cc1)Nc1ccc(C(F)(F)F)cc1", "GI50": 1.85, "TGI": 7.37}
    ]},
    {"system": "U251 CNS", "assay": "growth of human tumour cells (NCI), 48 h", "units": {"GI50": "µM", "TGI": "µM"}, "values": [
      {"smiles": "CC1OC2CC(=O)OC2C2=C1C(=O)c1c(O)cccc1C2=O", "note": "(stereo not given)", "GI50": 0.167, "TGI": 0.492},
      {"smiles": "O=C1NC(=Nc2ccccc2)S/C1=C\\c1ccc2ncccc2c1", "GI50": "> 5.13", "TGI": "> 25"},
      {"smiles": "C/C1=C\\CC[C@@]2(C)O[C@@H]2[C@H]2OC(=O)[C@@H](CN(C)C)[C@@H]2CC1", "GI50": 14.9, "TGI": 34.4},
      {"smiles": "Oc1ccc(Cl)cc1Cc1cc(Cl)cc(Cl)c1O", "GI50": 5.12, "TGI": 50.9},
      {"smiles": "C=C(C=O)C1CCC2(C(=O)O)CCC3(C)C(CCC4C5(C)CCC(O)C(C)(C)C5CCC43C)C12", "note": "(stereo not given)", "GI50": 1.64, "TGI": 3.74},
      {"smiles": "COc1ccc(N2C(=O)C(c3ccccc3)(c3ccccc3)C23C(=O)N(C)c2ccccc23)cc1", "note": "(stereo not given)", "GI50": "> 100", "TGI": "> 100"},
      {"smiles": "CC(C)=C[C@@H]1C[C@H](C)[C@H]2CC[C@H](C)C3=C2[C@](O)(OC3=O)[C@]1(C)O", "GI50": "> 100", "TGI": "> 100"},
      {"smiles": "CCC[CH2][Sn]([CH2]CCC)([CH2]CCC)[O]C(=O)CC", "GI50": 0.168, "TGI": 0.327},
      {"smiles": "C=C(C)[C@@]12OC3(/C=C/C=C/CCCCC)O[C@@H]1[C@@H]1[C@@H]4O[C@]4(CO)[C@@H](O)[C@]4(O)C(=O)C(C)=C[C@H]4[C@@]1(O3)[C@H](C)[C@H]2OC(=O)c1ccccc1", "GI50": 1.24, "TGI": 2.48},
      {"smiles": "O=c1c2ccccc2[se]n1-c1cccnc1", "TGI": 76},
      {"smiles": "NC(=NCCCOc1ccc(Cl)cc1)Nc1ccc(C(F)(F)F)cc1", "GI50": 1.71, "TGI": 3.89}
    ]},
    {"system": "NCI-H460 lung", "assay": "growth of human tumour cells (NCI), 48 h", "units": {"GI50": "µM", "TGI": "µM"}, "values": [
      {"smiles": "CC1OC2CC(=O)OC2C2=C1C(=O)c1c(O)cccc1C2=O", "note": "(stereo not given)", "GI50": 0.415, "TGI": 1.75},
      {"smiles": "O=C1NC(=Nc2ccccc2)S/C1=C\\c1ccc2ncccc2c1", "GI50": "> 6.82", "TGI": "> 25"},
      {"smiles": "C/C1=C\\CC[C@@]2(C)O[C@@H]2[C@H]2OC(=O)[C@@H](CN(C)C)[C@@H]2CC1", "GI50": 32.8, "TGI": "> 100"},
      {"smiles": "Oc1ccc(Cl)cc1Cc1cc(Cl)cc(Cl)c1O", "GI50": 3.22, "TGI": 13.2},
      {"smiles": "C=C(C=O)C1CCC2(C(=O)O)CCC3(C)C(CCC4C5(C)CCC(O)C(C)(C)C5CCC43C)C12", "note": "(stereo not given)", "GI50": 2.05, "TGI": 4.43},
      {"smiles": "COc1ccc(N2C(=O)C(c3ccccc3)(c3ccccc3)C23C(=O)N(C)c2ccccc23)cc1", "note": "(stereo not given)", "GI50": "> 100", "TGI": "> 100"},
      {"smiles": "CC(C)=C[C@@H]1C[C@H](C)[C@H]2CC[C@H](C)C3=C2[C@](O)(OC3=O)[C@]1(C)O", "GI50": "> 100", "TGI": "> 100"},
      {"smiles": "CCC[CH2][Sn]([CH2]CCC)([CH2]CCC)[O]C(=O)CC", "GI50": 0.135, "TGI": 0.281},
      {"smiles": "C=C(C)[C@@]12OC3(/C=C/C=C/CCCCC)O[C@@H]1[C@@H]1[C@@H]4O[C@]4(CO)[C@@H](O)[C@]4(O)C(=O)C(C)=C[C@H]4[C@@]1(O3)[C@H](C)[C@H]2OC(=O)c1ccccc1", "GI50": "< 0.01", "TGI": 2.29},
      {"smiles": "O=c1c2ccccc2[se]n1-c1cccnc1", "TGI": "> 100"},
      {"smiles": "NC(=NCCCOc1ccc(Cl)cc1)Nc1ccc(C(F)(F)F)cc1", "GI50": 2, "TGI": 4.97}
    ]},
    {"system": "SK-MEL-5 melanoma", "assay": "growth of human tumour cells (NCI), 48 h", "units": {"GI50": "µM", "TGI": "µM"}, "values": [
      {"smiles": "CC1OC2CC(=O)OC2C2=C1C(=O)c1c(O)cccc1C2=O", "note": "(stereo not given)", "GI50": 0.124, "TGI": 0.251},
      {"smiles": "O=C1NC(=Nc2ccccc2)S/C1=C\\c1ccc2ncccc2c1", "GI50": "> 25", "TGI": "> 25"},
      {"smiles": "C/C1=C\\CC[C@@]2(C)O[C@@H]2[C@H]2OC(=O)[C@@H](CN(C)C)[C@@H]2CC1", "GI50": 8.14, "TGI": 29.7},
      {"smiles": "Oc1ccc(Cl)cc1Cc1cc(Cl)cc(Cl)c1O", "GI50": 1.85, "TGI": 4.89},
      {"smiles": "C=C(C=O)C1CCC2(C(=O)O)CCC3(C)C(CCC4C5(C)CCC(O)C(C)(C)C5CCC43C)C12", "note": "(stereo not given)", "GI50": 1.52, "TGI": 2.84},
      {"smiles": "COc1ccc(N2C(=O)C(c3ccccc3)(c3ccccc3)C23C(=O)N(C)c2ccccc23)cc1", "note": "(stereo not given)", "GI50": "> 100", "TGI": "> 100"},
      {"smiles": "CC(C)=C[C@@H]1C[C@H](C)[C@H]2CC[C@H](C)C3=C2[C@](O)(OC3=O)[C@]1(C)O", "GI50": "> 100", "TGI": "> 100"},
      {"smiles": "CCC[CH2][Sn]([CH2]CCC)([CH2]CCC)[O]C(=O)CC", "GI50": 0.139, "TGI": 0.27},
      {"smiles": "C=C(C)[C@@]12OC3(/C=C/C=C/CCCCC)O[C@@H]1[C@@H]1[C@@H]4O[C@]4(CO)[C@@H](O)[C@]4(O)C(=O)C(C)=C[C@H]4[C@@]1(O3)[C@H](C)[C@H]2OC(=O)c1ccccc1", "GI50": "< 0.01", "TGI": 1.86},
      {"smiles": "O=c1c2ccccc2[se]n1-c1cccnc1", "TGI": 26.7},
      {"smiles": "NC(=NCCCOc1ccc(Cl)cc1)Nc1ccc(C(F)(F)F)cc1", "GI50": 1.61, "TGI": 2.97}
    ]}
  ]
}
